Source: patent US8106055B2, “Substituted amide compounds” (Gruenenthal GmbH, priority 2007, dated 2012)
Where two headings read alike, the source gives them in different places.

Key:
human μ opiate receptor = molecular target: T1, human μ opiate receptor (Homo sapiens, UniProt P35372); test: Affinity for the human μ opiate receptor ([3H]-naloxone displacement, CHO-K1 receptor membrane preparation, SPA); type: binding; conditions: 1.5 h, test concentration 1 μM
T1 construct: purchased PerkinElmer Life Sciences, Zaventem, Belgium RB-HOM; host or cells: CHO-K1 cells (membrane preparation)
T1 sequence (P35372 whole entry): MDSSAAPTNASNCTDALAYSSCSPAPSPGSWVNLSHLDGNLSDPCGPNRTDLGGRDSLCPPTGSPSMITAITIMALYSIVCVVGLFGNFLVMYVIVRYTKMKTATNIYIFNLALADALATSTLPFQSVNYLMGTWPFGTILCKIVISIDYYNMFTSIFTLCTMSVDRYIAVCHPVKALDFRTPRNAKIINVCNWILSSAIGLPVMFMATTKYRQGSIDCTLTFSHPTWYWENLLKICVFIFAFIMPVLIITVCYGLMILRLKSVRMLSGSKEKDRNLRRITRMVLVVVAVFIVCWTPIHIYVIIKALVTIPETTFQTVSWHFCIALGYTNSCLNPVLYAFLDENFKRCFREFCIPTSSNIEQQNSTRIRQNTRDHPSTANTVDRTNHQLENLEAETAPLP
Procedure, shortened: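 SPA, CHO-K1 hμ membranes; 1 nmol/l [3H]-naloxone; Tris-HCl 50 mmol/l + 0.06% BSA; 90 min RT; NSB with 100 μmol/l naloxone; β-counting. Readout: % inhibition of specific binding at 1 μM test compound.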

[1] = molecular target: T2, bradykinin 1 receptor (B1R) of the rat (Rattus norvegicus, UniProt P97583); test: Functional investigation on the rat bradykinin 1 receptor (B1R), Ca2+ FLIPR assay in CHO K1 rB1R cells; type: cell-based; conditions: CHO-K1, B1R antagonism rat, test substance 10 μM, read-out: B1R Ant. r [10 μM] % Inhibition
T2 construct: expressed in transfected cells; host or cells: CHO K1 cells
T2 sequence (P97583 1-337): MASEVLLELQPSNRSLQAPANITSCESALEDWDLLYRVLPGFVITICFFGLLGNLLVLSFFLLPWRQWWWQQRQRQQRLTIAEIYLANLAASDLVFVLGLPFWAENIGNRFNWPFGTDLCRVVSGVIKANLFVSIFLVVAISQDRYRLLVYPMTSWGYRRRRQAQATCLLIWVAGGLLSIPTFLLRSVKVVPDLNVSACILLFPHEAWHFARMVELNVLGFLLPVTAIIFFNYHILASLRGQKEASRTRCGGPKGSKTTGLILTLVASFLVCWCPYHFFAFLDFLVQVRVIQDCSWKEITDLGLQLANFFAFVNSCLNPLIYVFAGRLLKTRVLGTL
Procedure, shortened: (§1)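 Peak Ca2+-dependent fluorescence in B1R-transfected CHO K1 cells measures antagonism of an EC80 agonist challenge given 10-20 min after compound. Agonist is Lys-Des-Arg9-bradykinin for human, Des-Arg9-bradykinin for rat receptor.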

[2] = molecular target: T3, human bradykinin 1 receptor (B1R) (Homo sapiens, UniProt P46663); test: Functional investigation on the human bradykinin 1 receptor (B1R), Ca2+ FLIPR assay in CHO K1 hB1R cells; type: cell-based; conditions: CHO-K1, B1R antagonism human, test substance 10 μM, read-out: B1R Ant. h [10 μM] % Inhibition
T3 construct: expressed in transfected cells; host or cells: CHO K1 cells
T3 sequence (P46663 1-353): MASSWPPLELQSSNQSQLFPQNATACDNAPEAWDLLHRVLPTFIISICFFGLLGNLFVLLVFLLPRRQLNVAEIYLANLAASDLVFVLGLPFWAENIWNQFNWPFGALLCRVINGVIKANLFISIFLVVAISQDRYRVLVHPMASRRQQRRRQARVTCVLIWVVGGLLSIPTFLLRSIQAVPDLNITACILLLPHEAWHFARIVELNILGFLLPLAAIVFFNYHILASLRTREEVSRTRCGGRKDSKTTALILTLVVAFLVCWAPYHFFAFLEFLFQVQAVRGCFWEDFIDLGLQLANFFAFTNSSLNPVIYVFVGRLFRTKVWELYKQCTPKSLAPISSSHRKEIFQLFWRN
Procedure, shortened: as §1

[3] = Table 3, to be read in the same way as Table 1, read-out: μ
[4] = % inhibition compared with the maximum achievable inhibition

Row | Structure (SMILES) | inhibition at 1 µM (human μ opiate receptor; [3]) | inhibition at 10 µM ([1]; Ca2+ FLIPR, CHO K1 rB1R cells) | inhibition at 10 µM ([2]; Ca2+ FLIPR, CHO K1 hB1R cells) | inhibition at 1 µM (human μ opiate receptor; Table 2, read-out: μ receptor) | inhibition at 10 µM [1, 4] | inhibition at 10 µM [2, 4]
1 | O=C(COC1CCCN(S(=O)(=O)c2c(Cl)cc(Cl)cc2Cl)C1)NCC1CCC(C(c2ccccc2)N2CCCC2)CC1 (stereo not drawn) [Example 656, N-((4-(phenyl(pyrrolidin-1-yl)methyl)cyclohexyl)methyl)-2-(1-(2,4,6-trichlorophenylsulfonyl)piperidin-3-yloxy)acetamide] | 89% | 42% | 76% | – | – | –
2 | CN1CCN(C(c2ccccc2)C2CCC(NC(=O)COCCN(C)S(=O)(=O)c3c(Cl)cc(C(F)(F)F)cc3Cl)CC2)CC1 (stereo not drawn) [Example 690, 2-(2-(2,6-dichloro-N-methyl-4-(trifluoromethyl)phenylsulfonamido)ethoxy)-N-(4-((4-methylpiperazin-1-yl)(phenyl)methyl)cyclohexyl)acetamide] | 26% | 30% | 54% | – | – | –
3 | COc1cc(C)c(S(=O)(=O)N2CCC(OCC(=O)NCC3CCC(C(CCc4ccccc4)N4CCOCC4)CC3)C2)c(C)c1 (stereo not drawn) [Example 725, 2-(1-(4-methoxy-2,6-dimethylphenylsulfonyl)pyrrolidin-3-yloxy)-N-((4-(1-morpholino-3-phenylpropyl)cyclohexyl)methyl)acetamide] | 10% | 63% | 96% | – | – | –
4 | COc1cc(C)c(S(=O)(=O)N2CCCC2COCC(=O)NC2CCC(C(c3ccccc3)N3CCOCC3)CC2)c(C)c1 (stereo not drawn) [Example 694, 2-((1-(4-methoxy-2,6-dimethylphenylsulfonyl)pyrrolidin-2-yl)methoxy)-N-(4-(morpholino(phenyl)methyl)cyclohexyl)acetamide] | 10% | 104% | 54% | – | – | –
5 | COc1cc(C)c(S(=O)(=O)N2CCCCC2COCC(=O)NC2CCC(C(c3ccccc3)N3CCCC3)CC2)c(C)c1 (stereo not drawn) [Example 652, 2-((1-(4-methoxy-2,6-dimethylphenylsulfonyl)piperidin-2-yl)methoxy)-N-(4-(phenyl(pyrrolidin-1-yl)methyl)cyclohexyl)acetamide] | 70% | 105% | 101% | – | – | –
6 | COc1cc(C)c(S(=O)(=O)N2CCCC2COCC(=O)NCC2CCC(C(CCc3ccccc3)N3CCCC3)CC2)c(C)c1 (stereo not drawn) [Example 750, 2-((1-(4-methoxy-2,6-dimethylphenylsulfonyl)pyrrolidin-2-yl)methoxy)-N-((4-(3-phenyl-1-(pyrrolidin-1-yl)propyl)cyclohexyl)methyl)acetamide] | 52% | 94% | 101% | – | – | –
7 | COc1cc(C)c(S(=O)(=O)N(C)CCOCC(=O)NC2CCC(C(c3ccccc3)N3CCCCC3)CC2)c(C)c1C (stereo not drawn) [Example 617, 2-{2-[(4-methoxy-2,3,6-trimethylbenzenesulfonyl)-methylamino]-ethoxy}-N-[4-(phenylpiperidin-1-yl-methyl)-cyclohexyl]-acetamide] | – | 48% | 86% | 29% | – | –
8 | COc1cc(C)c(S(=O)(=O)N2CCCC(OCC(=O)NC3CCC(C(c4ccccc4)N4CCCC4)CC3)C2)c(C)c1 (stereo not drawn) [Example 647, 2-(1-(4-methoxy-2,6-dimethylphenylsulfonyl)piperidin-3-yloxy)-N-(4-(phenyl(pyrrolidin-1-yl)methyl)cyclohexyl)acetamide] | 49% | 94% | 92% | – | – | –
9 | COc1cc(C)c(S(=O)(=O)N2CCC(OCC(=O)NC3CCC(C(CCc4ccccc4)N4CCCCC4)CC3)C2)c(C)c1 (stereo not drawn) [Example 669, 2-(1-(4-methoxy-2,6-dimethylphenylsulfonyl)pyrrolidin-3-yloxy)-N-(4-(3-phenyl-1-(piperidin-1-yl)propyl)cyclohexyl)acetamide] | 20% | 95% | 103% | – | – | –
10 | CN1CCN(C(c2ccccc2)C2CCC(NC(=O)COCC3CCCCN3S(=O)(=O)c3c(Cl)cc(Cl)cc3Cl)CC2)CC1 (stereo not drawn) [Example 739, N-(4-((4-methylpiperazin-1-yl)(phenyl)methyl)cyclohexyl)-2-((1-(2,4,6-trichlorophenylsulfonyl)piperidin-2-yl)methoxy)acetamide] | 62% | 87% | 104% | – | – | –
11 | CN(C)C(c1ccccc1)C1CCC(CNC(=O)COCC2CCCN2S(=O)(=O)c2c(Cl)cc(Cl)cc2Cl)CC1 (stereo not drawn) [Example 622, N-[4-(dimethylaminophenylmethyl)-cyclohexylmethyl]-2-[1-(2,4,6-trichlorobenzenesulfonyl)-pyrrolidin-2-ylmethoxy]-acetamide] | – | 68% | 106% | 96% | – | –
12 | CN1CCN(C(c2ccccc2)C2CCC(NC(=O)COCC3CCCN(S(=O)(=O)c4c(Cl)cc(Cl)cc4Cl)C3)CC2)CC1 (stereo not drawn) [Example 742, N-(4-((4-methylpiperazin-1-yl)(phenyl)methyl)cyclohexyl)-2-((1-(2,4,6-trichlorophenylsulfonyl)piperidin-3-yl)methoxy)acetamide] | 29% | 53% | 36% | – | – | –
13 | O=C(COCC1CCCN1S(=O)(=O)c1c(Cl)cc(Cl)cc1Cl)NCC1CCC(C(c2ccccc2)N2CCOCC2)CC1 (stereo not drawn) [Example 710, N-((4-(morpholino(phenyl)methyl)cyclohexyl)methyl)-2-((1-(2,4,6-trichlorophenylsulfonyl)pyrrolidin-2-yl)methoxy)acetamide] | 24% | 92% | 42% | – | – | –
14 | CN(CCOCC(=O)NC1CCC(C(c2ccccc2)N2CCOCC2)CC1)S(=O)(=O)c1c(Cl)cccc1Cl (stereo not drawn) [Example 683, 2-(2-(2,6-dichloro-N-methylphenylsulfonamido)ethoxy)-N-(4-(morpholino(phenyl)methyl)cyclohexyl)acetamide] | 5% | 48% | 32% | – | – | –
15 | COc1cc(C)c(S(=O)(=O)N(C)CCOCC(=O)N2CCC(C(CCc3ccccc3)N3CCN(C)CC3)CC2)c(C)c1 (stereo not drawn) [Example 801, 4-methoxy-N,2,6-trimethyl-N-(2-(2-(4-(1-(4-methylpiperazin-1-yl)-3-phenylpropyl)piperidin-1-yl)-2-oxoethoxy)ethyl)benzenesulfonamide] | 21% | – | – | – | 97% | 106%
16 | COc1cc(C)c(S(=O)(=O)N2CCCC(OCC(=O)NCC3CCC(C(c4ccccc4)N4CCCC4)CC3)C2)c(C)c1 (stereo not drawn) [Example 648, 2-(1-(4-methoxy-2,6-dimethylphenylsulfonyl)piperidin-3-yloxy)-N-((4-(phenyl(pyrrolidin-1-yl)methyl)cyclohexyl)methyl)acetamide] | 95% | 98% | 95% | – | – | –
17 | CN(CCOCC(=O)NC1CCC(C(CCc2ccccc2)N2CCCCC2)CC1)S(=O)(=O)c1c(Cl)cc(C(F)(F)F)cc1Cl (stereo not drawn) [Example 671, 2-(2-(2,6-dichloro-N-methyl-4-(trifluoromethyl)phenylsulfonamido)ethoxy)-N-(4-(3-phenyl-1-(piperidin-1-yl)propyl)cyclohexyl)acetamide] | 9% | 4% | 43% | – | – | –
18 | CN(CCOCC(=O)NC1CCC(C(CCc2ccccc2)N2CCOCC2)CC1)S(=O)(=O)c1c(Cl)cccc1Cl (stereo not drawn) [Example 664, 2-(2-(2,6-dichloro-N-methylphenylsulfonamido)ethoxy)-N-(4-(1-morpholino-3-phenylpropyl)cyclohexyl)acetamide] | 5% | 11% | 70% | – | – | –
19 | COc1cc(C)c(S(=O)(=O)N2CCCC2COCC(=O)NC2CCC(C(c3ccccc3)N3CCCC3)CC2)c(C)c1 (stereo not drawn) [Example 632, 2-((1-(4-methoxy-2,6-dimethylphenylsulfonyl)pyrrolidin-2-yl)methoxy)-N-(4-(phenyl(pyrrolidin-1-yl)methyl)cyclohexyl)acetamide] | 68% | 75% | 105% | – | – | –
